Activity calls are given as the source filed them.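 Rule for the calls: active = compounds giving half or more protection of infected cells from virus-caused growth loss, again on retest; inactive = the rest.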 Where a SMILES comes first, the peptide text is derived from it. The star is where a group is joined. Cbz = O=C(OCc1ccccc1)*; NHNH2 = NN*

The test system of this test is CEM cells HIV-1 protection, formazan growth assay. Kind of test: NCI AIDS Antiviral Assay. The settings on record: for IC50: measured here: growth of uninfected CEM cells. The procedure, abridged: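 Human CEM cells, uninfected and HIV-1-infected, exposed to five drug concentrations; growth measured by soluble formazan assay and scored as percent protection from infection, with protecting compounds retested.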

On to `Cc1cn(C2C=CC(COP(=O)(OCC(=O)C(C)(C)C)OCC(=O)C(C)(C)C)O2)c(=O)[nH]c1=O` (stereo not given), for which the 50% effective concentration (EC50) is 1.29 µM and the IC50 is above 200 µM.
The like results for `CC1(C)CC(=O)C2=C(C1)OC1=C(CC(C)(C)CC1=O)C2c1ccccc1Cl` (stereo not given) were, in that order, above 200 µM and 162 µM.
Turning to `COC(=O)[C@H](Cc1c[nH]c2ccccc12)NP(=O)(O)OC[C@H]1O[C@@H](n2cc(C)c(=O)[nH]c2=O)C[C@@H]1N=[N+]=[N-]`, the half-maximal effective concentration (EC50) is 28.2 µM and the half-inhibitory concentration (IC50) was above 200 µM.
Consider `COC(=O)NC(Nc1ccc(C)cc1)(C(F)(F)F)C(F)(F)F`, for which the result was inactive.
Turning to `CC1C(=O)C(C)C(c2ccccc2)NC1c1ccccc1` (stereo not given), the EC50 was above 67.6 µM and the IC50 was above 67.6 µM.
Consider `NC(=N\N=C\C(O)C(O)C(O)C(O)C(=O)O)/C(N)=N/N=C/C(O)C(O)C(O)C(O)C(=O)O` (stereo not given), for which the result was inactive.
On the same count and under the same terms, the same measure for `Cc1cccc(C2OC(=O)c3c2ccc2ccccc32)c1` (stereo not given): “inactive”.
As to `CCOP(=S)(OCC)Oc1ccc2c(c1)OC(=O)C1(Cl)C2(C)C2(Cl)C(=O)Oc3cc(OP(=S)(OCC)OCC)ccc3C12C` (stereo not given), the EC50 was above 18.6 µM and the IC50 was above 18.6 µM.
Consider `O=c1ssc(=Nc2ccc(Cl)cc2)n1-c1ccc(Cl)cc1`, for which the EC50 is above 200 µM and the IC50 was determined as 8.91 µM.
The corresponding values for `S=c1ncc(-c2cncc(-c3cnc(=S)[nH]c3)n2)c[nH]1` are above 200 µM and above 200 µM.
The like results for `CCCCCCCCCCCC(=O)OCC1OC(n2cc(F)c(=O)[nH]c2=O)C(N)C(OC(=O)CCCCCCCCCCC)C1O` (stereo not given) were, in that order, above 3.02 µM and above 3.02 µM.
For `CN(C)Cc1cc(C(=O)/C=C/c2ccc(/C=C/C(=O)c3cc(CN(C)C)c(O)c(CN(C)C)c3)cc2)cc(CN(C)C)c1O`, the EC50 was above 200 µM and the IC50 came out at 10 µM.
The corresponding values for `NNC(=O)C(CCC(=O)O)NC(=O)C(CCC(=O)O)NC(=O)C(CCC(=O)O)NC(=O)CNC(=O)CNC(=O)OCc1ccccc1` (stereo not given) (Cbz-GGEEE-NHNH2; configuration not given here) are above 200 µM and above 200 µM.
Turning to `COc1cc(OC)c2nc(C)c(CCCl)c(Cl)c2c1`, the EC50 was above 200 µM and the IC50 is above 200 µM.
In the case of `CC(=O)O[C@]12CCCC1C1(O)C(O)CCCC12` (stereo not given in full), the EC50 was above 200 µM and the IC50 was above 200 µM.
Take `CC(C)C(=O)Nc1nc2c(ncn2C2OC(CO)C(O)C2O)c(=O)[nH]1` (stereo not given): the EC50 was above 708 µM and the IC50 was 513 µM.
The like results for `CC1COC(C)(C)P(=O)(c2ccccc2)C1` (stereo not given) were, in that order, above 1050 µM and above 1050 µM.
The like results for `Cc1c([N+](=O)[O-])ccc2c(NCCCN(C)C)ccnc12` were, in that order, above 200 µM and 19.1 µM.
As to `CN(C)CC1CCCC/C1=N/OC(=O)c1ccc(Cl)cc1` (stereo not given), the result was inactive.
Take `O=C(/C=C/c1cccc(Cl)c1)c1ccccc1`: the EC50 was above 11.2 µM and the half-maximal inhibitory concentration (IC50) is above 11.2 µM.
For the molecule `CN1C(=O)/C(=C2\SC(=O)N(CN3CCCCC3)C2=O)c2ccccc21`, the EC50 was above 200 µM and the IC50 came out at 27.5 µM.
The corresponding values for `CN(C)P(=O)(OP(=O)(N(C)C)N(C)C)N(C)C` are above 200 µM and above 200 µM.
The corresponding values for `CCC[CH2][Sn]1([CH2]CCC)[O]CC([CH2][Sn]([c]2ccccc2)([c]2ccccc2)[c]2ccccc2)[O]1` (stereo not given) are above 3.98 µM and 0.0234 µM.
As for `COC(=O)C1=C(C(=O)OC)SC(=C2SC3=C(SC(=C4SCCS4)S3)S2)S1`, the EC50 is above 100 µM and the IC50 is above 100 µM.
Turning to `Cc1cn(C2CC3C(COC(CC[Se]c4ccccc4)N3O)O2)c(=O)[nH]c1=O` (stereo not given), the 50% effective concentration (EC50) is 24 µM and the IC50 is 158 µM.
Consider `CCOC(=O)C(C)(C)Oc1ccc2c(=O)cc(-c3ccccc3)oc2c1`, for which the EC50 is above 53.7 µM and the IC50 was 36.3 µM.
The corresponding values for `COc1ccc(N2C(=O)/C(=C\c3cccc(Oc4ccccc4)c3)S(=O)(=O)C2c2ccccc2)cc1` (stereo not given) are above 200 µM and 28.8 µM.
The like results for `O=C1c2ccccc2C(=O)c2c(/C=C\N3CCCCC3)ccnc21` were, in that order, above 8.51 µM and above 8.51 µM.
The like results for `CSc1nnc(SC)c2[nH]cnc12` were, in that order, above 200 µM and above 200 µM.
With `CC1(C)CNC[C@]2(C)OCCCO[C@@]3(C)CNCC(C)(C)NC(=O)[C@](C)(CNCC(C)(C)NC3=O)OCCCO[C@](C)(CNCC(C)(C)NC2=O)C(=O)N1`, the EC50 is above 200 µM and the IC50 was above 200 µM.
As for `C[n+]1c(-c2ccc(/C=N/Nc3n[nH]c(=S)n3N/N=C/c3ccc(-c4cn5ccccc5[n+]4C)cc3)cc2)cn2ccccc21`, the EC50 was 18.6 µM and the concentration for half-maximal inhibition (IC50) is above 200 µM.
The like results for `CC(C)(Cc1ccccc1)NC1=NCCO1` were, in that order, above 200 µM and above 200 µM.
The like results for `C=C1[C@@H](OC(C)=O)C[C@@H]2C[C@]3(C)C(OC(C)=O)CC(C)(C)[C@@H]3C12O` (stereo not given in full) were, in that order, above 204 µM and above 204 µM.
The like results for `CC1=C(C(=O)NNS(=O)(=O)c2ccc(C)cc2)CC(C(=O)NNS(=O)(=O)c2ccc(C)cc2)=C(C)N1` were, in that order, above 13.5 µM and above 13.5 µM.
Take `S=C(Nc1ccc(N=Nc2ccccc2)cc1)SCc1ccc2c(c1)OCO2`: the EC50 was above 200 µM and the half-maximal inhibitory concentration (IC50) turned out to be 10.7 µM.
With `C=Cc1nc2nnc(CCCCCCCCc3nnc4nc(C=C)[nH]n34)n2[nH]1`, the EC50 was above 200 µM and the IC50 was 40.7 µM.
The corresponding values for `CN1CCN(CCCN2c3ccccc3Sc3ccccc32)CC1` are above 741 µM and 33.1 µM.
The corresponding values for `Cn1c2ccccc2c2ccc3c(c21)C(=O)C(c1ccccc1)=CC3=O` are above 40.7 µM and 29.5 µM.
The corresponding values for `C[CH2][Sn]([CH2]C)([O]C(=O)c1ccc(OC)c(OC)c1OC)[O]C(=O)c1ccc(OC)c(OC)c1OC` are above 83.2 µM and 7.59 µM.
Regarding `CC(=O)c1ccc2c(c1)CC1(C2)Cc2cc3c(cc2C1)C(=O)CC3` (stereo not given), the EC50 is above 200 µM and the half-inhibitory concentration (IC50) came to 0.234 µM.
The corresponding values for `NNc1nnc(-c2ccccc2)nc1Cc1ccccc1` are above 25.7 µM and 13.8 µM.
The like results for `COC(=O)C1(F)C(=O)NC(=O)NC1O` (stereo not given) were, in that order, above 200 µM and 91.2 µM.
The corresponding values for `O=c1n(-c2ccccc2)c(=O)n2n1C1C=CC2CCCCCC1` are above 200 µM and above 200 µM.
As to `CCC1([N+](=O)[O-])CN(N=O)C1`, the EC50 is above 200 µM and the IC50 is above 200 µM.
For the molecule `O=C1OCC2OC(O)C(O)C(O)C2OC(=O)c2cc(O)c(O)c(O)c2-c2c(O)c(O)c3oc(=O)c4c(c(O)c(O)c5oc(=O)c2c3c54)-c2c1cc(O)c(O)c2O` (stereo not given), the EC50 was 4.17 µM and the half-inhibitory concentration (IC50) was found to be 14.8 µM.
With `OCC12COC(c3ccccc3)N1C(c1ccccc1)OC2` (stereo not given), the EC50 is above 200 µM and the IC50 worked out at 11.2 µM.
The like results for `CN=C(N)c1ccc(N=C(N)c2cccc(C(N)=Nc3ccc(C(N)=NC)cc3)c2)cc1` were, in that order, above 200 µM and above 200 µM.
`COc1cccc(/C=C2/Sc3sc(C(C)=O)c(C)[n+]3C2=O)c1O`: the EC50 was above 89.1 µM and the IC50 turned out to be 34.7 µM.
The like results for `O=c1c2ccccc2nc2[nH]ncn12` were, in that order, above 200 µM and 117 µM.
The like results for `CC(=O)OC(C)C(=O)C1c2cccc(O)c2C(=O)c2c(O)cc(C)cc21` (stereo not given) were, in that order, above 191 µM and 3.24 µM.
The like results for `CC(=O)OCC1OC(n2ccc(-n3cncn3)nc2=O)CC1N=[N+]=[N-]` (stereo not given) were, in that order, 87.1 µM and above 200 µM.
For the molecule `Cc1cc(O)c(C(=O)CC2(O)C(=O)Nc3c(Cl)cc(Cl)cc32)c(=O)o1` (stereo not given), the EC50 is above 468 µM and the IC50 was above 468 µM.
Take `CC1=C(C(=O)Nc2ccccc2C)C(c2ccccc2)C(C(=O)Nc2ccccc2C)=C(C)N1`: the EC50 is above 11.5 µM and the IC50 was above 11.5 µM.
In the case of `O=C1C(c2ccccc2)=C(c2ccccc2)C1(Cl)Cl`, the EC50 was above 200 µM and the half-inhibitory concentration (IC50) was 2.45 µM.
Regarding `O=Cc1c(-c2ccccc2)nc2sc(-c3ccc4c(c3)OCO4)nn12`, the outcome was inactive.
On the same count and under the same terms, next, `COC(=O)C1=C(C(=O)OC)C2(C(=O)OC)OC1(OC)C(C1(C(=O)OC)C(C(=O)OC)=C1C(=O)OC)=C2C(=O)OC` (stereo not given): “inactive”.
Take `CC1=C2CC(C)(C)/C=C\C(=O)/C(C)=C\C3=C[C@H](C)C[C@]3(O2)C1=O`: the EC50 is above 0.2 µM and the IC50 is 0.0955 µM.
Take `Cc1ccc(C=C(C(=O)O)C(=O)O)o1`: the EC50 is 145 µM and the IC50 is above 200 µM.
As for `COc1cc(C2c3cc4c(cc3OC(NN)C2C)OCO4)cc(OC)c1O` (stereo not given), the outcome was inactive.
For the molecule `CC1C2CC(C(C3C(=O)C4CC3C(C)(C)C4C)C2=O)C1(C)C` (stereo not given), the EC50 is above 437 µM and the concentration for half-maximal inhibition (IC50) was above 437 µM.
Turning to `O=C1NC(N2CCOCC2)=N/C1=C\c1ccc(Cl)cc1`, the EC50 was above 200 µM and the 50% inhibitory concentration (IC50) was above 200 µM.
`O=C(O)CCc1ccc2c(c1)CC1(Cc3ccccc3C1)C2`: the EC50 is above 200 µM and the half-maximal inhibitory concentration (IC50) came out at 102 µM.
The corresponding values for `CN1C(=NCCO)NS(=O)(=O)c2ccccc21` are above 977 µM and above 977 µM.
The like results for `Nc1c(S(=O)(=O)O)cc(Nc2ccc(S(=O)(=O)O)c(Nc3nc(Cl)nc(Cl)n3)c2)c2c1C(=O)c1ccccc1C2=O` were, in that order, above 200 µM and above 200 µM.
Take `CC1=NN(C(=O)c2ccncc2)C(=O)C1`: the EC50 is above 200 µM and the concentration for half-maximal inhibition (IC50) is above 200 µM.
Turning to `O=C(O)/C(Cl)=C(Cl)/C=N/NC(=O)c1cc2ccccc2cc1O`, the EC50 is above 102 µM and the half-inhibitory concentration (IC50) amounted to 5.75 µM.
Turning to `CCOc1ccc(NC(=S)/N=C/c2c(O)cc(C)oc2=O)cc1`, the result was inactive.
On to `CC(=C\c1ccccc1)/C=C1/NC(=O)NC1=O`, for which the EC50 was above 200 µM and the IC50 amounted to 129 µM.
On to `NC(N)=N/N=C\c1c(-c2ccccc2)nc2sccn12`, for which the EC50 is above 200 µM and the 50% inhibitory concentration (IC50) was 12 µM.

One may read the EC50 as the concentration at which the effect is half-maximal. A word on the IC50: it is the concentration at which inhibition is half-maximal. A higher IC50 goes with lower potency.

The record behind these values is PubChem BioAssay AID179 (DTP/NCI, 2004).
